Measurements from paper PMC5808360, “Neutral Porphyrin Derivative Exerts Anticancer Activity by Targeting Cellular Topoisomerase I (Top1) and Promotes Apoptotic Cell Death without Stabilizing Top1-DNA Cleavage Complexes” (Journal of Medicinal Chemistry, 2017).

Key:
recombinant Top1 [1] = biological target: T1, recombinant Top1 (Homo sapiens, UniProt P11387); assay: Plasmid DNA relaxation assay with recombinant human Top1; assay type: biochemical; conditions: 1 μM compound, preincubated with Top1 before addition of DNA
T1 construct: made in house; host or cells: Sf-9 insect cells (recombinant baculovirus, gift of Prof. James J. Champoux)
T1 sequence (P11387 1-765): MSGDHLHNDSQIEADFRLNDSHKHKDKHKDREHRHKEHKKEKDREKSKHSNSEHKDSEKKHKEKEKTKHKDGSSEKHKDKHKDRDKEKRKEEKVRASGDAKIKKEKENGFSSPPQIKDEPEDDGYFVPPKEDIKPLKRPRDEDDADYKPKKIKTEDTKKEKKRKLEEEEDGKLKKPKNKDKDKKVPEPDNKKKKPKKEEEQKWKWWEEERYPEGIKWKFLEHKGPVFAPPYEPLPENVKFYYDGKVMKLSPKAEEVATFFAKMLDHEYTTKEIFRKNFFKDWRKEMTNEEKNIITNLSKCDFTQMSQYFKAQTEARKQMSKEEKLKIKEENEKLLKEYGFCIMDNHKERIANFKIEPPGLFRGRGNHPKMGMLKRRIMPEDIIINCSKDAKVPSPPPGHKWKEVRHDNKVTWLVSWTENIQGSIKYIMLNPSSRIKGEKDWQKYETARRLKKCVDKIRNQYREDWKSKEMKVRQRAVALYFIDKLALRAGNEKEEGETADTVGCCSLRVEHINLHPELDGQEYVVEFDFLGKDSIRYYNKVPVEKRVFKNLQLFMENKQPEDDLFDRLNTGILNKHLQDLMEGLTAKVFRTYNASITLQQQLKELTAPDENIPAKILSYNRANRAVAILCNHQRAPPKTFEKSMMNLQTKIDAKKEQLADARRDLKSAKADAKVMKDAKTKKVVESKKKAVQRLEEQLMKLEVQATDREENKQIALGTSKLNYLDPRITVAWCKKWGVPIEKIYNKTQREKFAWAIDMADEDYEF
Excerpt: To test the inhibitory effect of the synthetic library of neutral porphyrin compounds (Scheme 1) on human Top1 activity, we performed the DNA relaxation assays in a standard assay mixture containing the plasmid DNA and recombinant Top1.[6],[13],[36],[37]Table 1 enlists the compounds with relative efficiencies of Top1 inhibition as a measure of their effective drug concentrations (EC50 value), indicating the highest activity for the selected neutral porphyrin derivative compound 8.
To examine the mechanism of Top1 inhibition with compound 8, we used variable incubation conditions in the relaxation assays (Figure 1A). […] Next, to test the impact of compound 8 interaction with Top1 in the relaxation assays, we preincubated Top1 with compound 8 at indicated concentrations (Figure 1A, lanes 5–8) separately before the addition of DNA.[6],[13],[36],[38]
The recombinant human Top1 was purified from Sf-9 insect cells, infected with the recombinant baculovirus (a kind gift from Prof. James. J. Champoux) as described previously.[6],[13]
The type 1 DNA topoisomerase is assayed by decreased mobility of the relaxed isomers of supercoiled pBS (SK^+) DNA in 1% agarose gel. […]

[2] = biological target: T2, Top1-DNA cleavage complexes (Top1cc) (Homo sapiens, UniProt P11387); assay: Single turnover equilibrium cleavage assay with 25-mer duplex oligonucleotide; assay type: biochemical
T2 construct: made in house; host or cells: Sf-9 insect cells (recombinant baculovirus, gift of Prof. James J. Champoux)
T2 sequence (P11387 1-765): T1 sequence (P11387 1-765)
Protocol: (§1) Plasmid DNA cleavage assay was carried out as described previously.[6],[8] For equilibrium cleavage assays, 25-mer duplex of oligonucleotide containing a Top1 binding motif was labeled and annealed as described previously.[13],[36],[38] Samples were analyzed by 12% sequencing gel electrophoresis, dried, and exposed on PhosphorImager screens and imaged with Typhoon FLA 7000 (GE Healthcare, U.K.).

[3] = system: mouse embryonic fibroblasts (MEFs); assay: Cell survival (MTT) assay, MEFs (TDP1+/+ and TDP1-/-); assay type: cell-based
Excerpt: (§2) Compound 8 was investigated for its cytotoxicity in the cancer cell lines from different tissue origin,[6],[41] as well as in the noncancerous human embryonic kidney cell lines (HEK293) and mouse embryonic fibroblasts (MEFs). […] The MCF7 breast cancer cell lines were most susceptible to compound 8.
(§3) Human cancerous cell lines like MCF7, HeLa, HCT116, NIH:OVCAR-3, and HEK293 were obtained from the Developmental Therapeutics Program as kind gift from Dr. Yves Pommier (NIH/NCI/USA). TDP1^+/+ and TDP1^–/– primary MEF cells were kind gift from Dr. Cornelius F. Boerkoel (University of British Columbia, Canada) and were cultured as described previously.[6],[36],[40],[42] Plasmid DNAs were transfected with Lipofectamine 2000 (Invitrogen) according to the manufacturer’s protocol.
(§4) Cell survival was assessed by 3-(4,5-dimethylthiazol-2-yl)-2,5-diphenyltetrazolium bromide (MTT) assay as discussed previously.[6] The percent inhibition of viability for each concentration of the compounds was calculated with respect to the control, and IC50 values were estimated.

[4] = as above; assay type: cell-based, mouse; conditions: mouse, read-out: IC50 cytotoxicity
Excerpt: as §2, §3, §4

[5] = biological target: T2, Top1-DNA cleavage complexes (Top1cc); assay: Plasmid DNA cleavage assay (Top1cc formation); assay type: biochemical
Protocol: Because camptothecin (CPT) stabilizes Top1-DNA cleavable complexes (Top1cc) to inhibit Top1 activity,[3],[5],[37] we investigated compound 8 induced Top1cc formation with the plasmid DNA cleavage assays.[6],[8],[36],[37] Top1 mediated conversion of closed circular DNA (form I) to nicked circular DNA (form II) in the presence of specific inhibitors is referred to as “cleavable complex”. […] To further investigate the impact of compound 8 on preformed Top1cc, we preincubated Top1 with plasmid DNA and CPT (Figure 2B) before the addition of compound 8 in the cleavage assays.
as §1

recombinant Top1 [6] = biological target: T1, recombinant Top1; assay: Dilution assay with recombinant Top1 (reversibility of inhibition); assay type: biochemical
Excerpt: To further investigate the nature of binding of compound 8 with Top1 (reversible vs irreversible),[12],[14] we performed dilution assay with recombinant Top1.

[7] = Cell survival (MTT) assay, HEK293; assay type: cell-based; conditions: human, HEK293 cells (noncancerous embryonic kidney), read-out: IC50 cytotoxicity
Protocol: as §2, §4

inhibition at 1 µM (recombinant Top1 [1]): 85 to 95% | Stabilization of Top1cc in single turnover equilibrium cleavage assay ([2]; 25-mer duplex oligonucleotide, recombinant Top1 0.2 μM): failed to stabilize Top1cc | Effect on CPT-induced Top1cc with 12-mer cleaved oligonucleotides ([2]; Top1 incubated with CPT before addition of compound): reversed the CPT-induced Top1cc | Effect on CPT-induced preformed Top1cc in plasmid DNA cleavage assay ([5]; Top1 preincubated with plasmid DNA and CPT before addition of compound, dose dependent): completely abrogated CPT-induced Top1cc | Stabilization of Top1cc in plasmid DNA cleavage assay ([5]; recombinant human Top1 100 fmol, pBS (SK+) DNA, 37 °C, 30 min): failed to stabilize Top1cc | inhibition at 1 µM (recombinant Top1 [6]; Top1 preincubated with 1 μM compound, read-out: Inhibition of enzyme before dilution): 90 to 99% | Relief of Top1 inhibition upon dilution (recombinant Top1 [6]; at 40-fold dilution (final 0.025 μM)): Complete relief of Top1 inhibition
Compound: CN(C)c1ccc(-c2c3nc(c(-c4ccc(N(C)C)cc4)c4ccc([nH]4)c(-c4ccc(C(=O)O)cc4)c4nc(c(-c5ccc(C(=O)O)cc5)c5ccc2[nH]5)C=C4)C=C3)cc1 [Compound 8, 5,10-Bis(4-carboxyphenyl)-15,20-bis(4-dimethylaminophenyl)porphyrin]
Sensitivity of TDP–/– versus TDP1+/+ MEFs cells [3]: equally sensitive | IC50 ([4]; TDP1+/+ primary mouse embryonic fibroblasts (MEFs), TDP1+/+ MEFs): > 10 µM | IC50 ([4]; TDP1-/- primary mouse embryonic fibroblasts (MEFs), TDP1-/- MEFs): > 10 µM | IC50 ([4]; mouse embryonic fibroblasts (MEFs), MEFs, noncancerous): > 10 µM | IC50 [7]: > 10 µM
